Results: patent US7273951B2, “Polyhydroxy phenols and their use in binding p-selectin” (Astellas Pharma Inc., priority 2003, dated 2007)
One block for each compound: values may come before it.

What was measured:
human P-selectin [1] = target: T1, human P-selectin (Homo sapiens, UniProt P16109); experiment: Competition assay with biotin-PAA-Le^a-SO3H; conditions: read-out: IC50, inhibition of biotin-PAA-Le^a-SO3 binding to human P-selectin
T1 construct: purchased R&D Systems Europe Ltd., Abingdon, United Kingdom
T1 sequence (P16109 with tags, fused parts or gaps limits assumed): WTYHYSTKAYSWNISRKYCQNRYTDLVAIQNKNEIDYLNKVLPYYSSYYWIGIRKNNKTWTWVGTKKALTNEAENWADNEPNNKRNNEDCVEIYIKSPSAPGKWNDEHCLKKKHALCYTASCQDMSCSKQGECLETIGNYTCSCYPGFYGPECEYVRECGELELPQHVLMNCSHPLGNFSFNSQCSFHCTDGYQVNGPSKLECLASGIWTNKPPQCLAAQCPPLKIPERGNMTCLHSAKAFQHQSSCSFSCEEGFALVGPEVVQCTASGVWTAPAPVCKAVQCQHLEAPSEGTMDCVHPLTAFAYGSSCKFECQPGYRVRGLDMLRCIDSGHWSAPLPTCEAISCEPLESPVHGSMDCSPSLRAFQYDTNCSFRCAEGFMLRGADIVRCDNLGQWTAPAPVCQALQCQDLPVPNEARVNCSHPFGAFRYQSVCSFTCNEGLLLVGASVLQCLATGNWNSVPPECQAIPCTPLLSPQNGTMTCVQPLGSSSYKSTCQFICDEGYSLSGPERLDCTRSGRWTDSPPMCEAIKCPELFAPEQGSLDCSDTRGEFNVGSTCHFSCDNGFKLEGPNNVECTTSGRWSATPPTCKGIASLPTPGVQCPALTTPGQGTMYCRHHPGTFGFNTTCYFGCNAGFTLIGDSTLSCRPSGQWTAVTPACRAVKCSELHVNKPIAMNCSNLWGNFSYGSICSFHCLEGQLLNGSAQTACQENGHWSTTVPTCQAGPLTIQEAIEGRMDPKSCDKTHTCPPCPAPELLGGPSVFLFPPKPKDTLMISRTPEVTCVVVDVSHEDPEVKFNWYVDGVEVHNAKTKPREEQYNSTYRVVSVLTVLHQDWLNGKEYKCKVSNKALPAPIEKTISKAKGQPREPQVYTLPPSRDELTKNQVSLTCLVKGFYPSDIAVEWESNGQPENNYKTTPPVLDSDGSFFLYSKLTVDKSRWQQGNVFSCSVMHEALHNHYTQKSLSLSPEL
Protocol: (§1) Gallic acid (Acros, Geel, Belgium) was assayed for its ability to inhibit TM11-PO binding to human P-selectin. […] For competition studies, a 96 wells microtiter plate (high binding, flat bottom, Costar, Corning, U.S.A.) was coated overnight at 4° C. with 10 μg/ml goat anti-human IgG (Fc specific) (Sigma-Aldrich, Zwijndrecht, the Netherlands) in coating buffer (50 mM NaHCO3, pH 9.6). Subsequently, wells were washed with assay buffer and incubated for 1 hour at 37° C. with blocking buffer (3% BSA in assay buffer). After washing with assay buffer, the wells were incubated for 2 hours at 37° C. with the human P-selectin IgG-Fc chimera (R&D Systems Europe Ltd., Abingdon, United Kingdom) (0.3 μg/ml). Subsequently, wells were washed with assay buffer and incubated for 1 hour at 4° C. with the TM11-PO complex. The wells were washed six times with washing buffer (0.1% Tween 20 in assay buffer). […] (TMB)/hydrogen peroxide (H2O2) (Pierce, Rochford, U.S.A.) was added and wells were incubated at room temperature for 15 minutes. The reaction was halted by addition of 2 M H2SO4 and the absorbance was measured at 450 nm.
(§2) To be able to test gallic acid binding also to other members of the selectin family (i.e. E- and L-selectin), biotin-PAA-Le^a-SO3H (Synthesone, Munich, Germany) instead of TM11-PO was used as ligand in the competition assay. This polyacrylamide (PAA) based polymer with attached sulfo-Lewis A groups, is an established selectin ligand.
(§3) Experimentally, the same procedure was used as in example 7 however with the following differences. After washing with assay buffer, the wells were incubated for 2 hours at 37° C. with the human P-selectin IgG-Fc chimera, mouse P-selectin IgG-Fc chimera, human L-selectin IgG-Fc chimera and human E-selectin IgG-Fc chimera respectively (all from R&D Systems Europe Ltd., Abingdon, United Kingdom) (0.3 μg/ml). Subsequently the wells of the microtiter plate were incubated with biotin-PAA-Le^a-SO3H (0.33 μg/ml) for 2 hours at 37° C., instead of with the TM11-PO-complex.

human P-selectin [2] = target: T1, human P-selectin; experiment: Competition assay of gallic acid with TM11-PO; type: binding
Protocol: as §1

[3] = tested on: leukocyte-platelet conjugates rolling over femoral vein endothelium; experiment: In vivo rolling/tumbling of leukocyte-platelet conjugates (rosettes) over femoral vein endothelium; design: species or system mice
Protocol: Human blood was collected on 1:6 acid-citrate-dextrose (ACD: 93 mM trisodium citrate, 7 mM citric acid, 140 mM dextrose, pH 6.5) and 1 μM tirofiban. Human platelet rich plasma (PRP) was prepared via centrifugation at 150 g for 15 min. Murine blood was collected on 20 μg/ml hirudin and was centrifuged at 800 g for 30 sec, immediately followed by a second centrifugation at 150 g for 5 min to prepare PRP. The isolated PRP (human or murine) was then mixed with two volumes of ACD and recentrifuged at 800 g for 5 min. Subsequently, washed platelets were resuspended in HEPES-Tyrode's buffer (5 mM HEPES, 137 mM NaCl, 2.7 mM KCl, 12 mM NaHCO3, 0.36 mM NaH2PO4, 1% (w/v) glucose, pH 7.3) containing 1% (v/v) human serum albumin (HAS) at 10^6 platelets/μl. They were then incubated for 20 min at 37° C. with 5 μM calcein-AM, an acetoxymethyl ester, fluorescent once cleaved by non-specific esterases inside the cell, with no detectable effect on platelet function in our perfusion studies. The platelet suspension was then centrifuged at 700 g for 25 min and fluorescent platelets were resuspended in HEPES-Tyrode's buffer, and murine platelets were injected as such in mice.
All animal experiments were reviewed and approved by the Institutional Review Board of the University of Leuven and were performed in compliance with the guidelines of the International Society on Thrombosis and Haemostasis (Giles AR). For the study of platelet-assisted leukocyte rolling over the endothelial surface of blood vessels in vivo, on-line video microscopy was performed in mice. […] mice (6-12 weeks old) were anesthetized with Nembutal (70 mg/kg) via i.p. injection, and the jugular vein was catheterized. The femoral vein was exposed and mice were positioned on the table of an inverted epifluorescent microscope, such that the blood circulation in the femoral vein could be visualized through a Cohu CCD video camera. Fluorescent-labeled murine platelets were then injected in the catheterized jugular vein (500×10^6 platelets in 200 μl) and baseline rolling was recorded for the labeled platelets. […] After 5 min, the collagen-induced rolling and tumbling of leukocyte-platelet conjugates was then recorded for 10 min. The number of rosettes rolling were counted and their average tumbling speed was calculated from the registered movies. To address the effect of gallic acid on rosette rolling, it was infused 5 min prior to collagen administration and the rosette rolling was analysed as in the controls. […] Tumbling rosettes were counted 10 min after the collagen injection, before and after gallic acid infusion of 0.75 to 7.5 mg/kg.h. […]

human L-selectin = target: T2, human L-selectin (Homo sapiens, UniProt P14151); experiment: Competition assay with biotin-PAA-Le^a-SO3H; type: binding
T2 construct: purchased R&D Systems Europe Ltd., Abingdon, United Kingdom
T2 sequence (P14151 with tags, fused parts or gaps limits assumed): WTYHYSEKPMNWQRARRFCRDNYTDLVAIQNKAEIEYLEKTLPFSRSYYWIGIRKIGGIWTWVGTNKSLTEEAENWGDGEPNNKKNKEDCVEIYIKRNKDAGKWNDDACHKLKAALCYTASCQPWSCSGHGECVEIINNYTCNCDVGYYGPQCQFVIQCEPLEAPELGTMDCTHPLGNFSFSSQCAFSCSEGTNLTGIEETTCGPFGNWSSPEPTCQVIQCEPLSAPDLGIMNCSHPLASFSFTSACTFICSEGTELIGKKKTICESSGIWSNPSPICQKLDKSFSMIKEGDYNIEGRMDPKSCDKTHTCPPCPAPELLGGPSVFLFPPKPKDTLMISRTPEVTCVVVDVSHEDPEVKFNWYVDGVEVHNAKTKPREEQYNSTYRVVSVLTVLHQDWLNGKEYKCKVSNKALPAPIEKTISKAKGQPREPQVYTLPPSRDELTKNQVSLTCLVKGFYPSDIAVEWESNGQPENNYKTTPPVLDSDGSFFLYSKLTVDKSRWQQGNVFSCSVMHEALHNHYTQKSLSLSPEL
Protocol: as §1, §2, §3

mouse P-selectin = target: T3, mouse P-selectin (Mus musculus, UniProt Q01102); experiment: Competition assay with biotin-PAA-Le^a-SO3H; type: binding; conditions: biotin-PAA-Le^a-SO3H ligand
T3 construct: purchased R&D Systems Europe Ltd., Abingdon, United Kingdom
T3 sequence (Q01102 with tags, fused parts or gaps limits assumed): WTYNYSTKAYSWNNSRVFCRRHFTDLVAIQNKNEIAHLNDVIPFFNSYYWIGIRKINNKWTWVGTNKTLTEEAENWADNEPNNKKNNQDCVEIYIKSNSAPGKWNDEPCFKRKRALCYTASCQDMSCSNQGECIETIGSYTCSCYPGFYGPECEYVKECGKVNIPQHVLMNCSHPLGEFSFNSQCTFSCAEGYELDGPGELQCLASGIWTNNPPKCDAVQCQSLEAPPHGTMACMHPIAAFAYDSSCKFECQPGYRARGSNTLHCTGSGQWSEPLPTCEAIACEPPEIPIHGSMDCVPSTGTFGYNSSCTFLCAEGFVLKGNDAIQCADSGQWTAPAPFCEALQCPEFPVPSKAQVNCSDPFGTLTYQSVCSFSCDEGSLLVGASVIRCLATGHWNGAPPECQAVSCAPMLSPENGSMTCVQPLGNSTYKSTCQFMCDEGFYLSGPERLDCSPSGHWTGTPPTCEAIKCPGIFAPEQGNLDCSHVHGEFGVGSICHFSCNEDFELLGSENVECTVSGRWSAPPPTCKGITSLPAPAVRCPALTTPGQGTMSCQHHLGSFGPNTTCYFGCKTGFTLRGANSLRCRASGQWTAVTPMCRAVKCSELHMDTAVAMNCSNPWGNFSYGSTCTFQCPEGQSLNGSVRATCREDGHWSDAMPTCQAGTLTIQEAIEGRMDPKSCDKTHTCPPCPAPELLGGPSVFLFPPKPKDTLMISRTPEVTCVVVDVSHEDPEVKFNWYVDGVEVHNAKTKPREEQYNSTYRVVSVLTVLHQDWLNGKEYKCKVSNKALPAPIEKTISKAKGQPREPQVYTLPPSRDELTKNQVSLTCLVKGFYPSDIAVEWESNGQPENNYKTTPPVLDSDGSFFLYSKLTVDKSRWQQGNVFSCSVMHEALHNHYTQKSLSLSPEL
Protocol: as §1, §2, §3

human E-selectin = target: T4, human E-selectin (Homo sapiens, UniProt P16581); experiment: Competition assay with biotin-PAA-Le^a-SO3H; type: binding; conditions: concentrations up to 1 mM; biotin-PAA-Le^a-SO3H ligand
T4 construct: purchased R&D Systems Europe Ltd., Abingdon, United Kingdom
T4 sequence (P16581 with tags, fused parts or gaps limits assumed): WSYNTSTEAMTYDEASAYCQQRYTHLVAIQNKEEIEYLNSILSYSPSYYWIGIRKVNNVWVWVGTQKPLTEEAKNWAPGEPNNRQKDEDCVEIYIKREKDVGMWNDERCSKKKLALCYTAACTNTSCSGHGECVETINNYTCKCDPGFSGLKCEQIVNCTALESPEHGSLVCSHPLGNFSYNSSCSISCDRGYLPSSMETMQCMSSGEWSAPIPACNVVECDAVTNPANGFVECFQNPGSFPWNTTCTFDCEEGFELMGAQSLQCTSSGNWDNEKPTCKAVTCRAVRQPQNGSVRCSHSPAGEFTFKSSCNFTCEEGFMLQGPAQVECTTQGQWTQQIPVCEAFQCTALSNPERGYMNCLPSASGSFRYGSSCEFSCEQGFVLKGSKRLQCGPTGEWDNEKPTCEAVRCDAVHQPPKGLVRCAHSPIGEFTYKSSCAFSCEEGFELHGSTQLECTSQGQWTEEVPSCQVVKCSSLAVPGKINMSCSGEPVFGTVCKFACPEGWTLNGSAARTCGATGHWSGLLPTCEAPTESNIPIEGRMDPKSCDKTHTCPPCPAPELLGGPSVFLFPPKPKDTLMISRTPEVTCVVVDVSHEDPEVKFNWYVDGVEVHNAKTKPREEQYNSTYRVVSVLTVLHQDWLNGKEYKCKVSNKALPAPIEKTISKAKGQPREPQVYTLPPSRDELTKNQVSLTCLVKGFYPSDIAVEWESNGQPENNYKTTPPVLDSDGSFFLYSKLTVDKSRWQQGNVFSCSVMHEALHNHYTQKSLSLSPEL
Protocol: as §1, §2, §3

platelets = experiment: TRAP-induced platelet aggregation in platelet-rich plasma; type: cell-based, human; conditions: for Maximal platelet aggregation: TRAP 6.5 μM, human PRP
Protocol: Freshly drawn venous blood from healthy volunteers was collected with an informed consent into 1/10 volume of 3.2% tri-sodium citrate (w/v). These donors denied to have taken aspirin or other platelet function inhibitors during the previous ten days. Platelet-rich plasma (PRP) was prepared by centrifugation (150 g, 15 min, 22° C.). PRP was adjusted to a final concentration of 200,000 platelets/μl with platelet-poor plasma (PPP), which was obtained after an additional centrifugation step of the remaining blood (1100 g, 15 min, 22° C.). PRP was left for 30 min at 37° C. to ensure a resting state of the platelets. Afterwards, PRP was incubated for 5 min with different concentrations of gallic acid, EGCG or solvent at 37° C. Samples were transferred to an aggregometer (Kordia BV, Leiden, The Netherlands) to determine platelet aggregation at a stirring speed of 900 r.p.m. Platelet aggregation was initiated after preincubation with different concentrations of GA or EGCG (0, 50, 250 and 500 μM) by the addition of thrombin receptor activating peptide (TRAP, 6.5 μM, 37° C.).

[4] = tested on: HL60 cells / human P-selectin expressing Chinese hamster ovary cells (CHO-P); experiment: Dynamic interactions between HL60 cells and CHO-P monolayers in parallel-plate perfusion chamber; type: cell-based
Protocol: Chinese hamster ovary (CHO) cells stably transfected with human P-selectin (CHO—P) were kindly donated by Dr. Modderman (University of Amsterdam, Amsterdam, the Netherlands). Cells were grown in DMEM (BioWhittaker Europe, Verviers, Belgium) containing 10% foetal calf serum (FCS) (BioWitthaker), 5 mM L-glutamine, 20,000 units penicillin/streptomycin (BioWhittaker) and 5 mM non-essential amino acids (Gibco, Paisley, United Kingdom). Flasks with cells were incubated at 37° C. in 5% CO2 for 3 or 4 days until cells had grown nearly confluent.
HL60 cells were from ATCC and grown in RPMI 1640 medium (BioWhittaker) with 10% FCS, 5 mM L-glutamine and 20,000 units penicillin/streptomycin.
Dynamic interactions between […], displaying a high expression of PSGL-1, the natural P-selectin ligand, and human P-selectin expressing Chinese hamster ovary cell (CHO—P cells) monolayers grown onto glass coverslips coated with 30 μg/ml collagen S (type I) (Roche Diagnosis, Brussels, Belgium) were analysed in a parallel-plate perfusion chamber with a method adapted from G. Theilmeier (Blood 1999, 94: 2725-2734). The coverslip constituted the bottom of the chamber and the actual chamber was formed by a 254-μm height silicon rubber gasket designed with a conically shaped flow path, thus resulting in a 3-fold increase of wall shear rate from the inlet of the chamber to the outlet. Calcein-AM labeled HL60 cells, suspended in RPMI (0.5×10^6/ml) were perfused at 37° C. and at a flow rate of 1 ml/min with an inverted syringe pump (Harvard Instruments, South Natick, Mass., U.S.A.). The flow chamber was mounted on the table platform of an inverted epifluorescence microscope (Diaphot; Nikon, Melville, N.Y., U.S.A.) coupled to a Cohu CCD video camera (COHU Inc, San Diego, Calif., U.S.A.) and HL60 cell translocation over CHO—P monolayers were measured at wall shear rates of 300 and 600 s-1. Gallic acid was added to HL60 cell suspensions 2 minutes before the onset of perfusion. To prevent oxidation, the gallic acid solution was prepared freshly. Real time movies of 12 seconds (10 images per second), recorded at predefined positions in the flow path corresponding to chosen wall shear rates were stored and digitised with a Scion LG3 frame grabber (Scion Corp, Frederick, Mich., U.S.A.). The average velocity of HL60 cells rolling over the CHO—P cells was calculated from the rolling distance of the HL60 cells in a 1 second timeframe, using the NIH Image program version 6.1. The number of adhered HL60 cells was counted from pictures taken during the same experiment.

Compound: O=C(O)c1ccc(O)cc1 [4-hydroxy benzoic acid]
IC50 (human P-selectin [1]): > 300 µM

Compound: O=C(O)c1cc(O)c(O)c(O)c1 [gallic acid, 3,4,5-trihydroxybenzoic acid]
IC50 (human P-selectin [2]): 7.2 µM | Conjugate rolling over femoral vein endothelium, number of conjugates rolling per unit of surface ([3]; C57/B16 mice (WT), FIG. 8A): Dose-dependent inhibition | Rolling of preformed leukocyte-platelet conjugates, percentage of rolling in absence of gallic acid ([3]; aged atherosclerotic ApoE-/- mice, FIG. 8B): Inhibition | Effective plasma concentration corresponding to ED50 ([3]; mice, at ED50 of rosette tumbling): 40 µM | ED50, dose giving half maximal inhibition of rosette tumbling ([3]; mice, infusion 0.75 to 7.5 mg/kg.h, counted 10 min after collagen injection): 1.5±0.4 mg/kg.h | IC50 (human L-selectin): 241 µM | Binding to P-selectin, mouse versus human (mouse P-selectin): species-independent | Inhibition of E-selectin binding (human E-selectin): less than 20% | IC50 (human P-selectin [1]): ~85 µM | Maximal platelet aggregation (platelets; 250 μM): no significant inhibition | Maximal platelet aggregation (platelets; 500 μM): inhibit platelet aggregation significantly | Change of HL60 cell adhesion to CHO-P monolayer vs untreated control ([4]; 50 μM, wall shear rate 300 s^-1): −34% | Change of HL60 cell adhesion to CHO-P monolayer vs untreated control ([4]; 50 μM, wall shear rate 600 s^-1): −43% | Change of HL60 cell adhesion to CHO-P monolayer vs untreated control ([4]; 250 μM, wall shear rate 300 s^-1): −41% | Change of HL60 cell adhesion to CHO-P monolayer vs untreated control ([4]; 250 μM, wall shear rate 600 s^-1): −54% | Rolling velocity of HL60 cells across CHO-P monolayer ([4]; 50 and 250 μM): doubled

Compound: (−)-epigallocatechin gallate [EGCG]
IC50 (human P-selectin [1]): 114 µM | Maximal platelet aggregation (platelets; 250 μM): no significant inhibition | Maximal platelet aggregation (platelets; 500 μM): inhibit platelet aggregation significantly

Results, then the compound that gave them:

IC50 (human P-selectin [1]): > 300 µM
Compound: O=C(O)/C=C/c1ccc(O)c(O)c1 [caffeic acid]

IC50 (human P-selectin [1]): > 300 µM | Platelet lysis (platelets; human platelets, not usable in aggregation test): causes platelet lysis
Compound: CCCCCCCCCCCCOC(=O)c1cc(O)c(O)c(O)c1 [n-dodecyl gallate]
